The values below come from paper PMC4340503 (Nature, 2008).

Where a SMILES comes first, the peptide text is derived from it. [ ]: non-standard residue; d: D form. The star is where a group is joined. X1 = CCCCCCCCCCCCCCCC(=O)OC[C@H](COP(=O)(O)OCCNC(=O)CCCc1ccc(N2C(=O)CC(*)C2=O)cc1)OC(=O)CCCCCCCCCCCCCCC; pS = N[C@@H](COP(=O)(O)O)C(=O)O

Test [1] deals with AP2 core σ2L103S (UniProt P17427+P62743+P63010+P84092, L103S). It counts as binding. The following applies: pH 8.7.
Test [2] addresses AP2 core σ2V88D (UniProt P17427+P62743+P63010+P84092, V88D). It counts as binding. The following applies: pH 8.7.

AP2 core σ2L103S, sequence (P62743 whole entry L103S): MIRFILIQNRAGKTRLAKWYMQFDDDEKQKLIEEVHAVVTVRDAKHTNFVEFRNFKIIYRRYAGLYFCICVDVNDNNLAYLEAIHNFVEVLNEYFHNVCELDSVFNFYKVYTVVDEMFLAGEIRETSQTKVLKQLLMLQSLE
AP2 core σ2L103S, sequence (P84092 whole entry): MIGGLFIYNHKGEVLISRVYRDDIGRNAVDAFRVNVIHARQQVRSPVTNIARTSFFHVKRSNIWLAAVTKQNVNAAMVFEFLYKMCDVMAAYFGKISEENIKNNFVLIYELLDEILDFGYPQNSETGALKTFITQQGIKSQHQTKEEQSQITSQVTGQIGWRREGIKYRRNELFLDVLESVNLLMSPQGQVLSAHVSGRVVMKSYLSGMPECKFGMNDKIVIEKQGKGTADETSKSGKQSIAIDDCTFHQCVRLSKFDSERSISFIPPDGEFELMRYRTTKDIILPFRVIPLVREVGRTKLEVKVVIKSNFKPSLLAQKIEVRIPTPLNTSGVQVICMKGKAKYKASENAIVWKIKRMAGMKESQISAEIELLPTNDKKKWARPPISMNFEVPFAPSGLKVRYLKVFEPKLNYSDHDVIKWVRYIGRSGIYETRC
AP2 core σ2L103S, sequence (P17427 1-621): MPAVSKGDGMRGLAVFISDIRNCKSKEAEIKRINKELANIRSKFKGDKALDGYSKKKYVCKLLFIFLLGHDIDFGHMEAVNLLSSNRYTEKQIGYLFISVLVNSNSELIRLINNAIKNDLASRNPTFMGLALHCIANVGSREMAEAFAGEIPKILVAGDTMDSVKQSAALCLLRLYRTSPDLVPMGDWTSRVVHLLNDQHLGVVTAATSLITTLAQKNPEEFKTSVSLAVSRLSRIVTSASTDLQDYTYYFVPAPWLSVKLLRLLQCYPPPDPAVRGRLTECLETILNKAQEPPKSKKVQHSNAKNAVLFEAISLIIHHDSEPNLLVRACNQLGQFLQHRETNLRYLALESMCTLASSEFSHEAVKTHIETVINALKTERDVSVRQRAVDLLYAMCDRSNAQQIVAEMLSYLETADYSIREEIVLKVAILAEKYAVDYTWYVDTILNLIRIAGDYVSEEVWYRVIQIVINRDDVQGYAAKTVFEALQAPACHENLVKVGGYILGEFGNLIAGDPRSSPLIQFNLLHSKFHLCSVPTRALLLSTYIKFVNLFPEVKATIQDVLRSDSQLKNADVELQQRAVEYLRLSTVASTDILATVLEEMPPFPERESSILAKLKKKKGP
AP2 core σ2L103S, sequence (P63010 1-591): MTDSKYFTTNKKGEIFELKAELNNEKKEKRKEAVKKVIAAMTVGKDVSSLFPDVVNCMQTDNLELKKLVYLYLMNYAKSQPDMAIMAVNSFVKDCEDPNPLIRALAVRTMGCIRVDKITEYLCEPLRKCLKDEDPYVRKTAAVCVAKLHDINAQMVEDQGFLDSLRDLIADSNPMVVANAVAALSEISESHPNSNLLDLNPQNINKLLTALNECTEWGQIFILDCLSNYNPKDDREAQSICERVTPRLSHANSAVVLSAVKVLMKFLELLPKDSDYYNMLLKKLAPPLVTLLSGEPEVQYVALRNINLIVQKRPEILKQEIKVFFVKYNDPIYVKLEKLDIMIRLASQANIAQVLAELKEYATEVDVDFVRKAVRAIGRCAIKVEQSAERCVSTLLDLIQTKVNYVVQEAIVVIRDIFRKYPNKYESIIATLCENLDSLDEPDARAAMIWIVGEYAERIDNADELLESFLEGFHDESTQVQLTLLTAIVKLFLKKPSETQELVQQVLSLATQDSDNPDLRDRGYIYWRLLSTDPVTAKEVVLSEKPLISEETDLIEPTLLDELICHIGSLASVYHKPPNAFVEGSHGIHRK
AP2 core σ2V88D, sequence (P62743 whole entry V88D): as the sequence (P62743 whole entry L103S) above, with V88D, S103L counted along it
AP2 core σ2V88D, sequence (P63010 1-591, stated change not applied): as the sequence (P63010 1-591) above
AP2 core σ2V88D, sequence (P84092 whole entry, stated change not applied): as the sequence (P84092 whole entry) above
AP2 core σ2V88D, sequence (P17427 1-621): as the sequence (P17427 1-621) above

Take `CCCCCCCCCCCCCCCC(=O)OC[C@H](COP(=O)(O)OCCNC(=O)CCCc1ccc(N2C(=O)CC(SC[C@H](N)C(=O)N[C@@H](Cc3c[nH]cn3)C(=O)N[C@@H](CCCNC(=N)N)C(=O)N[C@@H](CCCNC(=N)N)C(=O)N[C@@H](CCCNC(=N)N)C(=O)N[C@@H](CCC(N)=O)C(=O)N[C@@H](C)C(=O)N[C@@H](CCC(=O)O)C(=O)N[C@@H](CCCNC(=N)N)C(=O)N[C@@H](CCSC)C(=O)N[C@@H](COP(=O)(O)O)C(=O)N[C@@H](CCC(N)=O)C(=O)N[C@H](C(=O)N[C@@H](CCCCN)C(=O)N[C@@H](CCCNC(=N)N)C(=O)N[C@@H](CC(C)C)C(=O)N[C@@H](CC(C)C)C(=O)N[C@@H](CO)C(=O)N[C@@H](CCC(=O)O)C(=O)N[C@@H](CCCCN)C(=O)O)[C@@H](C)CC)C2=O)cc1)OC(=O)CCCCCCCCCCCCCCC` (some centres unmarked) [phospho-CD4 Q-peptide] (H-C(X1)HRRRQAERM[pS]QIKRLLSEK-OH; N-terminus and C-terminus assumed): the KD entry in test [1] and in test [2] was “below detectable levels” in each case.
